For orientation: CC50 means the concentration at which the toxic effect on the cells reaches its halfway point. For orientation: IC50 means the point on the concentration scale where inhibition reaches its midpoint. The term EC50 denotes the midpoint of the concentration-response curve. The AC50 is the midpoint of the concentration-response curve, whichever way the signal moves.

We go through four compounds from ChEMBL document CHEMBL1201862, “PubChem BioAssay data set” (2004).

Calls of active or inactive are those of the source.

The nature of assay [1]: viability of uninfected HEp-2 cells – cell-based, HTS, cytotoxicity control for RSV inhibitor project, dose response (AID 2410). Type of assay: functional. As to conditions: human respiratory syncytial virus.
The target of the next assay is T1, Coagulation factor XII (Homo sapiens, UniProt P00748).
T1 sequence (P00748 whole entry): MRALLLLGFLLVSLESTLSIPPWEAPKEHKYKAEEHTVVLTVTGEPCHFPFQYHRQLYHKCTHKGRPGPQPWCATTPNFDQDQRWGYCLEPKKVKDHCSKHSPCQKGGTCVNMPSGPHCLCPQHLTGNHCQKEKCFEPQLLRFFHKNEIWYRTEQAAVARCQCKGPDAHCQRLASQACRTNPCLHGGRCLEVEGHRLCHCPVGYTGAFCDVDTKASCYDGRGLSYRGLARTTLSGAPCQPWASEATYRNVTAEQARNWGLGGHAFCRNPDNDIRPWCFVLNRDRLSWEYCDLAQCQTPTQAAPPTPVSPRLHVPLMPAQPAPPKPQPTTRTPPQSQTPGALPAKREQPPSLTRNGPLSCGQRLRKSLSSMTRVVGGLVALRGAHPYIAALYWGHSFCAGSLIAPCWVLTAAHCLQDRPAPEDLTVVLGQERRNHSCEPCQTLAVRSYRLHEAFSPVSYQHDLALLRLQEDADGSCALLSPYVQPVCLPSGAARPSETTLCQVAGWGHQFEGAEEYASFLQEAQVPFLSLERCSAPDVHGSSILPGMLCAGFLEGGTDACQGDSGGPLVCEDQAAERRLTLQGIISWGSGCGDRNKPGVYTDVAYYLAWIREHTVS
Nature of the assay: Factor XIIa Dose Response Confirmation from Single Well HTS. [Related pubchem assays (depositor defined):AID701]. It counts as functional.

Assay [2] has as its target T2, G-protein coupled receptor 35 (Homo sapiens, UniProt Q9HC97). Nature of the assay: SAR analysis of Agonists of the GPR35 Receptor using an Image-Based Assay - Set 3. [Related pubchem assays (depositor defined):AID1961, AID1965]. Type of assay: functional.
For assay [3], the target named is T3, Cannabinoid receptor 2 (Homo sapiens, UniProt P34972). Briefly: SAR analysis of agonists of the Cannabinoid Receptor 2 using an Image-Based Assay - Set 2. [Related pubchem assays (depositor defined):AID1961, AID1965]. It counts as functional.
T3 sequence (P34972 whole entry): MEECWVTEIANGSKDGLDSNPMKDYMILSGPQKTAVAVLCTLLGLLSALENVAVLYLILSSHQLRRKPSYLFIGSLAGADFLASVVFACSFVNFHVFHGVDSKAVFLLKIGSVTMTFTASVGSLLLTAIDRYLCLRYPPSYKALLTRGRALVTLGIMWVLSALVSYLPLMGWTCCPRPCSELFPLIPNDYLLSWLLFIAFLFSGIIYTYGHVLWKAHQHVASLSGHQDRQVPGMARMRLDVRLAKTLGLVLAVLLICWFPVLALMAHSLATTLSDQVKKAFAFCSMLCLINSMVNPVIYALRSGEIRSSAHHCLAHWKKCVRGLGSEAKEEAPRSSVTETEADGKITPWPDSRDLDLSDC
The target in assay [4] is T4, Cannabinoid receptor 1 (Homo sapiens, UniProt P21554). Briefly: SAR analysis of antagonists of the Cannabinoid Receptor 1 using an Image-Based Assay - Set 3. [Related pubchem assays (depositor defined):AID1961, AID1965]. It counts as functional.
T4 sequence (P21554 whole entry): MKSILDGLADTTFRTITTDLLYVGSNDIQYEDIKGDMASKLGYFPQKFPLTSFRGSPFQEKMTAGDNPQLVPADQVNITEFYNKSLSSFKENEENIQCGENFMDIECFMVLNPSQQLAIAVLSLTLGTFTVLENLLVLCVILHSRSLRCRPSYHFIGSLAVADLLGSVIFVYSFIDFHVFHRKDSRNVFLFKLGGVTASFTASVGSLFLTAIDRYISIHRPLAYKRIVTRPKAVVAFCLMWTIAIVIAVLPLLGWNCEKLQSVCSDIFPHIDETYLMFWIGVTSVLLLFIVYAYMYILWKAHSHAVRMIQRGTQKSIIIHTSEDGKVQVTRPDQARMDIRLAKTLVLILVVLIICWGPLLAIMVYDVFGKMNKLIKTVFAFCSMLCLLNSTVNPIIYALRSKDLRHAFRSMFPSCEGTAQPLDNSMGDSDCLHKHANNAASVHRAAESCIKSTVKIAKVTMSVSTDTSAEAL
Assay [5] concerns the target G-protein coupled receptor 55 (Homo sapiens, UniProt Q9Y2T6). Nature of the assay: SAR analysis of selective Agonists of GPR55 using an Image-Based Assay - Set 2. [Related pubchem assays (depositor defined):AID1961, AID1965]. Type of assay: functional.
Assay [6] deals with T4, Cannabinoid receptor 1. Nature of the assay: SAR analysis of agonists of the Cannabinoid Receptor 1 using an Image-Based Assay - Set 3. [Related pubchem assays (depositor defined):AID1961, AID1965]. Type of assay: functional.
Assay [7] addresses T2, G-protein coupled receptor 35. Briefly: SAR analysis of Antagonists of the GPR35 Receptor using an Image-Based Assay - Set 4. [Related pubchem assays (depositor defined):[…]]. It counts as functional.
Assay [8] deals with T3, Cannabinoid receptor 2. Briefly: SAR analysis of antagonists of the Cannabinoid Receptor 2 using an Image-Based Assay - Set 2. [Related pubchem assays (depositor defined):AID1961, AID1965]. Type of assay: functional.
The target of assay [9] is DNA damage-inducible transcript 3 protein (Mus musculus, UniProt P35639). It counts as functional, Cricetulus griseus.
DNA damage-inducible transcript 3 protein, sequence (P35639 whole entry): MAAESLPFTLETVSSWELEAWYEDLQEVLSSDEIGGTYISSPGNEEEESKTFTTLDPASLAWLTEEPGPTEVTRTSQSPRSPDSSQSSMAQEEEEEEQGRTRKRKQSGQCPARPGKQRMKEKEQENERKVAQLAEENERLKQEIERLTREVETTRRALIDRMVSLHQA
Assay [10] can be described thus: Luminescence Cell-Based Dose Retest to Confirm Inhibitors of Cancer Stem Cells. [Related pubchem assays (depositor defined):AID2717, AID2721]. Type of assay: functional. As to conditions: Homo sapiens.
The next assay concerns the target X-box-binding protein 1 (Homo sapiens, UniProt P17861). Type of assay: functional, Cricetulus griseus.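 Further: confirmatory dose-response counter-screen serving a CHOP assay.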
Assay [11] can be described thus: viability of HCT116 lacking mutant beta-catenin – cell-based, human colon tumor, dose response (AID 1045).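 Further: HCT116 colon tumor cells with beta catenin knocked out; cells exposed to compound for 60 hours.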 It counts as functional.
The nature of assay [12]: Intein inhibitors as potential Tuberculosis drugs, a cytotoxicity screen. [Related pubchem assays (depositor defined):AID2221, AID2223, AID434968, AID435010, AID449749, AID449750, AID489010]. It counts as functional.
Another assay concerns the target T5, Aminopeptidase N (Plasmodium falciparum FcB1/Columbia, UniProt O96935).
T5 sequence (O96935 whole entry): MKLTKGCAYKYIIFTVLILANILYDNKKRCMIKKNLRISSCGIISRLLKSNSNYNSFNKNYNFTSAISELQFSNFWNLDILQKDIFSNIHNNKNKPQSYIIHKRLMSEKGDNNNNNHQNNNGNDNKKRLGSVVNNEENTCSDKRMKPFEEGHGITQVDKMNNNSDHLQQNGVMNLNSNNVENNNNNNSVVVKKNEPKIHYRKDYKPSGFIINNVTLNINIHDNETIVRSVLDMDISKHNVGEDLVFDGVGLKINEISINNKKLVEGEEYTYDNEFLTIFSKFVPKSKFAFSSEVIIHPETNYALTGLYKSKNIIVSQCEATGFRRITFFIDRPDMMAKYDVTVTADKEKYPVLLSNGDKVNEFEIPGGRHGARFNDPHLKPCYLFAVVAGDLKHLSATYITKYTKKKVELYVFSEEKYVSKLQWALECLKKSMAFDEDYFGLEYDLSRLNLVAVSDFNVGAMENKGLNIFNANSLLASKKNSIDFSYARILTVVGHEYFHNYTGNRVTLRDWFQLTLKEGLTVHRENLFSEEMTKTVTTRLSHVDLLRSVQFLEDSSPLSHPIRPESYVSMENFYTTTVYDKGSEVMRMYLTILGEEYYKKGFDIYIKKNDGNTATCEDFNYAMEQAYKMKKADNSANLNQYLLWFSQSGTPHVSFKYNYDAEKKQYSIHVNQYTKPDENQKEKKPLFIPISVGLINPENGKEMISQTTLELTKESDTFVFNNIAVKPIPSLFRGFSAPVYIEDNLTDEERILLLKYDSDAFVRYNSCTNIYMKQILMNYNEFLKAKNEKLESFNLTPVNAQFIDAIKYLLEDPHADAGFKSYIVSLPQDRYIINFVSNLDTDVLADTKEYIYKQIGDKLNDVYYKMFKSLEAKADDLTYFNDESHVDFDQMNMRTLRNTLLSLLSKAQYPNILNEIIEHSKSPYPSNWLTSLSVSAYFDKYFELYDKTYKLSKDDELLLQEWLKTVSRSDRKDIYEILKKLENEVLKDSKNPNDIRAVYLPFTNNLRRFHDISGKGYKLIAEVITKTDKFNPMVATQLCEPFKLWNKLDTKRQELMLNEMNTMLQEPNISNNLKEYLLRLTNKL
Nature of the assay: malaria alanyl aminopeptidase activity blockers – biochemical, fluorogenic H-Leu-NHMec substrate, 1536-well (AID 1445). Further details: species or system Plasmodium falciparum 3D7, 3D7.

A further assay has as its target T6, Bcl-2-like protein 10 (Homo sapiens, UniProt Q9HD36).
T6 sequence (Q9HD36 whole entry): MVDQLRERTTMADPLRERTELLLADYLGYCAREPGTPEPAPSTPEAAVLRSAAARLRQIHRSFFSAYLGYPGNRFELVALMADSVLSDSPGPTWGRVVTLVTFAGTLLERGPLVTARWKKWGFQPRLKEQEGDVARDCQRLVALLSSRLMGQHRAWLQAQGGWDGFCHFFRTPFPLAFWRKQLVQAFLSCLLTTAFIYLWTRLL
Nature of the assay: Bcl-B/TR3 peptide binding disruption – biochemical, fluorescence polarization, FITC-TR3 peptide, selectivity assay for Bfl-1 inhibitor project, primary screen (AID 748). Background: Fluorescence polarisation rises when a labelled molecule tumbles more slowly, as on binding a larger partner.

Another assay deals with T7, Protein RecA (Mycobacterium tuberculosis, UniProt P9WHJ3).
T7 sequence (P9WHJ3 whole entry): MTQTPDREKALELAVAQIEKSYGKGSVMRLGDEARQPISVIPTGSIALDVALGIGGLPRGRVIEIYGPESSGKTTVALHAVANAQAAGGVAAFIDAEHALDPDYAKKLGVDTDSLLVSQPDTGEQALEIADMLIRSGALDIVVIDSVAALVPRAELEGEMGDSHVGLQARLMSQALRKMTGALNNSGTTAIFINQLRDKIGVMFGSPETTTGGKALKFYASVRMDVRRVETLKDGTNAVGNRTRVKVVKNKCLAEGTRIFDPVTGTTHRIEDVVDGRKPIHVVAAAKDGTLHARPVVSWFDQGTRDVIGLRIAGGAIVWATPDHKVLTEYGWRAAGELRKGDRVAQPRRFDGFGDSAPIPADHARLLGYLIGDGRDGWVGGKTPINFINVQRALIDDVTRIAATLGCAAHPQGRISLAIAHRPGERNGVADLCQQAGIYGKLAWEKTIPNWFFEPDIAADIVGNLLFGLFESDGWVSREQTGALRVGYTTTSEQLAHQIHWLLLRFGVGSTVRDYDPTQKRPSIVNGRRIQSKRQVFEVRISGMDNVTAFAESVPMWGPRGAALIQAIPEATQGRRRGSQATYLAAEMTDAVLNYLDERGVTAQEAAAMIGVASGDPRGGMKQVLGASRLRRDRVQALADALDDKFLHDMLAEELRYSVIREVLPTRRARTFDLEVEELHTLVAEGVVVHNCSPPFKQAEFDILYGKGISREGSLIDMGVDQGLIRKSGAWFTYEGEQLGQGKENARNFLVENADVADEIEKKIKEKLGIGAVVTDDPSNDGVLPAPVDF
Briefly: Fluorescence Cell-Free Homogeneous Dose Retest to Identify Inhibitors of RecA-Intein Splicing Activity. [Related pubchem assays (depositor defined):AID2097, AID2223, AID489010, AID492950]. It counts as functional.

In assay [13] the target is T8, Replicative DNA helicase DnaB (Mycobacterium tuberculosis, UniProt P9WMR3).
T8 sequence (P9WMR3 whole entry): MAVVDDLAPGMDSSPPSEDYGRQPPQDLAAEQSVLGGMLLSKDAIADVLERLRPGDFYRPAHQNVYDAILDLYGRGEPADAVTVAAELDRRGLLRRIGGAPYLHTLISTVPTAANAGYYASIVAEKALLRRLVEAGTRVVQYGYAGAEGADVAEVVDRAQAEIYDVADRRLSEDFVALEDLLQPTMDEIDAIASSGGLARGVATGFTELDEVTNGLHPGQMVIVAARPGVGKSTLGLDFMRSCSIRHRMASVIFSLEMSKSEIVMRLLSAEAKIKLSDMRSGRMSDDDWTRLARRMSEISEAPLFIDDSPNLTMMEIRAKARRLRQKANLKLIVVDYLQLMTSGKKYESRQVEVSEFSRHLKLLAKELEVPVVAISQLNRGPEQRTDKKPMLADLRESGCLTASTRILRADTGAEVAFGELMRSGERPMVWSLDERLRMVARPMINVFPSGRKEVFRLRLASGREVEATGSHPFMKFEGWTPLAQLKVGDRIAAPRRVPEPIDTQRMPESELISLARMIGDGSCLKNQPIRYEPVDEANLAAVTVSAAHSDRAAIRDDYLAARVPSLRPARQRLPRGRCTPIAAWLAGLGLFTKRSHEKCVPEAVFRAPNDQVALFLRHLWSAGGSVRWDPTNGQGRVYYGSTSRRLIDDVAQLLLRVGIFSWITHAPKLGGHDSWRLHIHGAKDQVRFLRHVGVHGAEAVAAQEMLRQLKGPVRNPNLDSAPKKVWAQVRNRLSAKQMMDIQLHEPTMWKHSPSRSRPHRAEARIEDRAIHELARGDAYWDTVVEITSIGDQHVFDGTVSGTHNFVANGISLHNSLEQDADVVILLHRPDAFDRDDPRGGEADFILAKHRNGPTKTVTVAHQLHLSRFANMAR
Nature of the assay: DnaB intein splicing inhibitors, dose response, biochemical, cell-free fluorescence (AID 449749). Type of assay: functional.

Assay [14] can be described thus: viability of PTEN-deleted HCT116 cells – cell-based, HCT116 PTEN knockout, dose response (AID 1047).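 Further: HCT116 colon tumor cells with PTEN knocked out; cells exposed to compound for 60 hours before readout; potency for loss of cell viability measured by luminescence.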 It counts as functional.

T2 sequence (Q9HC97 whole entry): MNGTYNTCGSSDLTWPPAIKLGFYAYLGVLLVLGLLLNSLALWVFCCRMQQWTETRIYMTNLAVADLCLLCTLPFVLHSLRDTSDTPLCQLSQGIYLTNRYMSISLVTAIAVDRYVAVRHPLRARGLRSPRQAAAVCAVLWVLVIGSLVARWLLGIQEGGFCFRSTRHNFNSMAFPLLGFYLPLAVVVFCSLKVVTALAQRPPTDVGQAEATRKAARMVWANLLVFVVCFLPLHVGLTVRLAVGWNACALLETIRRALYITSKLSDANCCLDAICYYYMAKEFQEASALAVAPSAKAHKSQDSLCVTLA
X-box-binding protein 1, sequence (P17861 whole entry): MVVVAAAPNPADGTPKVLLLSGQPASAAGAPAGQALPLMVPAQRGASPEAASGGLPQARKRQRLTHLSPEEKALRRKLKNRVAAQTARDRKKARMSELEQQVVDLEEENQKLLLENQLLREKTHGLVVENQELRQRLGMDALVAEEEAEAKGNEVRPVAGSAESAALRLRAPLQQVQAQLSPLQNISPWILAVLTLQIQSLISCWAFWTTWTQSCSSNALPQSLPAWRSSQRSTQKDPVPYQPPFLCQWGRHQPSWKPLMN
G-protein coupled receptor 55, sequence (Q9Y2T6 whole entry): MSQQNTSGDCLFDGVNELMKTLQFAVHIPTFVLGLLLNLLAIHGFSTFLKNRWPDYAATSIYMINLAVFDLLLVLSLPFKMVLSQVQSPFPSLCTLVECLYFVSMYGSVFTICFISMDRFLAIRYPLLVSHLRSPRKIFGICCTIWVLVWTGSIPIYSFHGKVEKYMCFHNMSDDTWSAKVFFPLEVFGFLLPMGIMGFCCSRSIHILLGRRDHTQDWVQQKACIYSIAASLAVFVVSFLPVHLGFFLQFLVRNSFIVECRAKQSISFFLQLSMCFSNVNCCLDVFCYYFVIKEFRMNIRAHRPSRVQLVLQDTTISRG

As to `Cc1ccc(-c2cc(-c3ccccc3)c3c(N)c(S(C)(=O)=O)sc3n2)cc1`, the CC50 in [1] is 48.4 µM (active). Also, the IC50 on Coagulation factor XII was > 50 µM (inactive).

For the compound `Cc1ccc2cc(C)c3nnc(SCC(=O)N(C)c4nc(-c5ccccc5)cs4)n3c2c1`, the EC50 (in [2]; at Cannabinoid receptor 2 [3]; in [5]; at Cannabinoid receptor 1 [6]) was > 32 µM (inactive) each time. The 50% inhibitory concentration (IC50) is 4.44 µM (active) at Cannabinoid receptor 1 [4], > 32 µM (inactive) in assay [7] and > 32 µM (inactive) at Cannabinoid receptor 2 [8].

In the case of `CCCc1ccc(O)c(/N=C/c2cc(Br)cc(OCC)c2O)c1`, in [9], the “Absolute IC50 (CHOP)” value turned out to be 10 µM. In [10], the concentration at half-maximal activity (AC50) is 9.69 µM (active). On X-box-binding protein 1, the “Absolute IC50 (XBP1)” value came out at 10 µM.

For the compound `Cc1ccc(O)c(/N=C/C2=C(O)c3ccccc3C2=O)c1`, the half-maximal effective concentration (EC50) in assay [11] is 22.2 µM (active); on Protein RecA it was 0.216 µM (active); in [14] it was 32 µM (active). Besides, the 50% cytotoxic concentration (CC50) in assay [12] is > 40 µM (active). The concentration for half-maximal inhibition (IC50) is 71.9 µM (active) at Aminopeptidase N and 44.7 µM (active) at Bcl-2-like protein 10. In assay [13], the AC50 is 0.4 µM (active).
